US9476053B2, “Methods and compositions for inhibition of immune responses and autoimmunity” (Dynavax Technologies Corporation, priority 2007, dated 2016)
Read-outs that look alike come from different tables or passages of the source.

How the values were obtained:
[1] = tested on: cells infiltrating inflamed skin; test: Tape-stripping skin inflammation in 129 mice, gene expression of infiltrating cells by Taqman; format: in vivo, mouse; details: IRS 100 μg s.c. or i.v. or locally
Method: PDC infiltrate the inflamed mouse skin. 129 mice were mechanical stripped 12 times with tape or left untreated as control. After 16 hr mice were euthanized and the skin was collected and digested for 1 hr with a solution containing Liberase 0.28 u/ml and the cellular content was analyzed by flow cytometry. A) depicts an example of the facs plot of plasmacytoid dendritic cells PDC were defined to be CD11c+, […]) Cells infiltrating the skin were stimulated in vitro with an immunostimulatory sequence […] ID NO:125), wherein upper case letters represent PS […] lower case letters represent PO linkages) (1 μM) and IFN-α was measured in the supernatant by ELISA. Cells infiltrating inflamed skin show an IFN-α inflammatory gene signature which is preventable by treatment with IRS. Skin of 129 mice was mechanical inflamed by tape stripping as described in FIG. 39. Mice were stripped only or stripped and treated with IRS (SEQ ID NO:123) (100 μg) either administered s.c. or i.v. or locally on the inflamed skin. A group of mice was left completely untreated to serve as controls. Skin was processed as described in FIG. 39 and RNA was extracted from the infiltrating cells using an RNA kit from Quiagen according to manufacture instruction. Gene expression of specific genes was measured by Taqman. […] IRS can target skin inflammation in vivo.

[2] = tested on: plasmacytoid dendritic cells (PDCs); format: cell-based, human
[3] = tested on: IFN-α production in PDC cells; format: cell-based, human
PDC [4] = test: Glucocorticoid induced cell death in lupus prone (NZB×NZW)F1 mice treated with DEX plus IRS; format: in vivo, mouse; details: DEX 500 μg plus IRS 100 μg, spleen
Method: Next, the ability of immunoregulatory sequences to restore responsiveness to glucocorticoid treatment in lupus prone mice (NZB×NZW)F1 was evaluated.
To test whether IRPs comprising an IRS restore sensitiveness to glucocorticoid induced cell death in autoimmune prone animals, Lupus prone mice (NZB×NZW)F1 mice treated with 500 μg of Dexthametasone (DEX) alone or DEX (500 μg) plus IRS (SEQ ID NO: 123) (100 μg) or DEX (500 μg) plus IRS (SEQ ID NO: 123) (100 μg) or DEX (500 μg) plus CTRL oligo (100 μg). Viability of the different cell type was evaluated as described in Example 9.
Cells were identified to be PDC by the surface presence of B220, CD11c, and PDCA1 marker. Myeloid dendritic cells were identified as to be CD11c positive and B220 negative. B-cells were identified as B220 positive cells and CD11c negative. Monocytes were identified as CD11b positive. […] IRS restored sensitiveness to glucocorticoid induced cell death in autoimmune prone animals.

PDC [5] = test: In vivo PDC sensitivity to glucocorticoid in 129 mice treated with DEX plus CpG plus IRS; set-up: species or system mouse; details: DEX 1000 μg plus CpG 50 μg plus IRS 100 μg
Method: To investigate whether IRPs comprising an IRS restore in vivo PDC sensitivity to glucocorticoid in mice treated with CpG-TLR9 ligand, 129 mice were treated with the glucocorticoid Dexthametasone (DEX; 1000 μg) alone or DEX (1000 μg) plus a immunostimulatory sequence CpG-C ISS C274 (“ISS”; […]. Viability of the different cell type was evaluated as described in Example 9.
Cells were identified to be PDC by the surface presence of B220, CD11c, and PDCA1 marker. Myeloid dendritic cells were identified as to be CD11c positive and B220 negative. B-cells were identified as B220 positive cells and CD11c negative. Monocytes were identified as CD11b positive. Similar results were obtained using blood (data not shown). […] IRPs comprising an IRS restored in vivo PDC sensitivity to glucocorticoid in mice treated with CpG-TLR9 ligand.

[6] = influenza virus and SEQ ID NO:123 compared to influenza virus alone, hydroxycortisone 1×10^−8 M
[7] = influenza virus, no hydroxycortisone present

With “5′-TGCTCCTGGAGGGGTTGT-3′ (chemistry not given here) [SEQ ID NO:123]” the “IFN-α inflammatory gene signature of cells infiltrating inflamed skin” value [1] was “preventable”, the “reduction in the amount of hydroxycortisone necessary to achieve 50% death of PDCs” value (“reduction … to achieve 50% death of PDCs” for short) ([2]; HSV plus SEQ ID NO:123 versus HSV) was 37 fold and the “reduction … to achieve 50% death of PDCs” value ([2]; ISS plus SEQ ID NO:123 versus ISS) was 23 fold. The “percent survival of PDCs compared to influenza virus alone” value ([2]; combination with influenza virus, hydroxycortisone 1×10^−6 M, 48H) was “statistically significant decrease”, the “decrease in survival of PDC cells” value [2, 6] was 23% and the “reduction … to achieve 50% death of PDCs” value ([2]; influenza virus plus SEQ ID NO:123 versus influenza virus) was 204 fold. For the same substance, the “difference in PDC survival” value [2, 7] was “no difference”, the IFN-α production inhibited [3, 6] was 92% and the IFN-α inhibition [3, 7] was “completely inhibited”. The “sensitiveness to glucocorticoid induced cell death in autoimmune prone animals” value (PDC [4]) was “restored” and the “in vivo PDC sensitivity to glucocorticoid in mice treated with CpG-TLR9 ligand” value (PDC [5]) was “restored”.
